Reference: US8637670B2, “Imidazo [4,5-C]quinoline derivatives and their use in the treatment of tumors and/or inflammation” (Piramal Enterprises Limited, priority 2009, dated 2014)

How the values were obtained:
BxPC3 = assay: Cytotoxicity, propidium iodide assay, BxPC3; assay type: cell-based; conditions: Homo sapiens, BXPC-3; Pancreatic, BxPC3, 48 hours treatment; read-out: IC50, C5c (BxPC3)
Method: (§1) The assay was designed as in the reference, Anticancer Drugs, 2002, 13, 1-8, the disclosure of which is incorporated by reference for the teaching of the assay.
(§2) Cells from cell lines as mentioned in the table given below were seeded at a density of 3000 cells/well in a white opaque 96-well plate. Following incubation at 37° C./5% CO2 for a period of 18-24 hours, the cells were treated with various concentrations (stock solution was prepared in DMSO and subsequent dilutions were made in media as per ATCC guidelines) of the compounds of Example 1-40 was for a period of 48 hours. At the end of treatment, the spent culture medium was discarded, the cells were washed with 1×PBS and 200 μl of 7 μg/ml propidium iodide was added to each well. The plates were frozen at −70° C. for at least 24 hours. For analysis, the plates were brought to RT, allowed to thaw and were read in PoleStar fluorimeter with the fluorescence setting. The percentage of viable cells in the non-treated set of wells was considered to be 100 and the percentage viability following treatment was calculated accordingly. IC50 values were calculated from graphs plotted using these percentages. Table 4 depicts the IC50 values of compounds of Example 1-40 in individual cell lines.
(§3) The abbreviations for the Cell Lines as used in Table 4 are: […]

MCF7 = assay: Cytotoxicity, propidium iodide assay, MCF7; assay type: cell-based; conditions: Homo sapiens; Breast, MCF7, 48 hours treatment; read-out: IC50, C6c (MCF7)
Method: as §1, §2, §3

Row | SMILES | IC50 (BxPC3) | IC50 (MCF7)
1 | Cc1cccc(S(=O)(=O)n2c(=O)n(-c3ccc(C(C)(C)C#N)cc3)c3c4cc(Br)ccc4ncc32)c1 [Example 3, 2-(4-(8-Bromo-2-oxo-3-(m-tolylsulfonyl)-2,3-dihydro-1H-imidazo[4,5-c]quinolin-1-yl)phenyl)-2-methylpropanenitrile] | ≤ 1000 nM | 
2 | C/C=C/C(=O)n1c(=O)n(-c2ccc(C(C)(C)C#N)cc2)c2c3cc(Br)ccc3ncc21 [Example 27, (E)-2-(4-(8-Bromo-3-but-2-enoyl-2-oxo-2,3-dihydro-1H-imidazo[4,5-c]quinolin-1-yl)phenyl)-2-methylpropanenitrile] |  | ≤ 1000 nM
3 | CC(C)(C#N)c1ccc(-n2c(=O)n(C(=O)c3ccccc3)c3cnc4ccc(Br)cc4c32)cc1 [Example 30, 2-(4-(3-Benzoyl-8-bromo-2-oxo-2,3-dihydro-1H-imidazo[4,5-c]quinolin-1-yl)phenyl)-2-methylpropanenitrile] | ≤ 1000 nM | 
4 | C/C=C/C(=O)n1c(=O)n(-c2ccc(C(C)(C)C#N)cc2)c2c3cc(Cl)ccc3ncc21 [Example 38, (E)-2-(4-(3-But-2-enoyl-8-chloro-2-oxo-2,3-dihydro-1H-imidazo[4,5-c]quinolin-1-yl)phenyl)-2-methylpropanenitrile] |  | ≤ 1000 nM
